Results from patent US4229479A, “Fluoracylresorcinols as ingredients in pharmaceutical, cosmetic and pesticidal compositions” (Boehringer Ingelheim GmbH, priority 1976, dated 1980).
Like-named read-outs stand apart in the source and are kept apart here.

Columns and labels:
[1] = biological target: T1, glucose-6-phosphate-dehydrogenase (Saccharomyces cerevisiae, UniProt P11412); assay: Inhibition of the glucose-6-phosphate-dehydrogenase; type: biochemical; settings: 366 nm
T1 construct: purchased Boehringer Mannheim
T1 sequence (P11412 1-505): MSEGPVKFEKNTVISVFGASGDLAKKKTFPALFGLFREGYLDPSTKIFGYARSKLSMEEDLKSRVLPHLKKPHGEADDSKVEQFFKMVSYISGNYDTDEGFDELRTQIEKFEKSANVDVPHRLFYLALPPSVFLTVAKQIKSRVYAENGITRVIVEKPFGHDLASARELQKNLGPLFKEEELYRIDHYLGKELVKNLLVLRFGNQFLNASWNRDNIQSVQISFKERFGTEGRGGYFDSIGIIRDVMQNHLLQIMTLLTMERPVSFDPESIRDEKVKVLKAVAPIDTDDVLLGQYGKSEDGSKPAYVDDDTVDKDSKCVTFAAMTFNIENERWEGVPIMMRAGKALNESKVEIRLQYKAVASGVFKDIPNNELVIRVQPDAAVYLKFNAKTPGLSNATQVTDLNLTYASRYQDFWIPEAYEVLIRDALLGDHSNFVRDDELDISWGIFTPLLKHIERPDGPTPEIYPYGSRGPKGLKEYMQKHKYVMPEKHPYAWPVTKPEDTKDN
Procedure: Measurement of the inhibition of the glucose-6-phosphate-dehydrogenase.
The equilibrium was observed: [drawing 6]
The rate of formation of NADPH is a measure for the enzyme activity; it may be observed by means of the extinction increase at 340,334 or 366 nm per unit of time.
0.025 ml of glucose-6-phosphate-dehydrogenase (Boehringer Mannheim) were filled up to 10 ml of distilled water (solution I). 100 mgm of nicotinamide-adenine-dinucleotide-phosphate were dissolved in 13 ml of distilled water (solution II). 47.2 mgm of glucose-6-phosphate were dissolved in further 10 ml of distilled water (solution III). Simultaneously a buffer solution (solution IV) was prepared as follows:
0.28 gm of triethanolamine-hydrochloride and 1.461 gm of ethylene diaminotetraacetic acid-disodium salt were dissolved in 1 liter of distilled water and adjusted to a pH of 7.6 with sodium hydroxide solution. The substance under test was dissolved in dimethyl formamide or ethanol (solution V). Tested concentrations: 50; 25; 12.5; 6.25; 3.125; 1.56 and 0.78 μg/ml.
0.1 ml of solution I, 0.1 ml of solution II, 2.67 ml of solution IV and 0.03 ml of solution V were mixed and kept at 25° C. for 5 minutes. Then 0.1 ml of solution III was added, mixed and the alteration of extinction was determined spectrophotometrically at 366 nm for 3 minutes.
0.1 ml of solution I, 0.1 ml of solution II, 2.67 ml of solution IV and 0.03 ml of solution V were mixed and kept at 37° C. for 60 minutes. Then 0.1 ml of solution III was added, mixed and the alteration of extinction was measured spectrophotometrically at 366 nm for 3 minutes.
The inhibitory values were calculated from the average values of three measurements (alteration of extinction per minute) compared with controls, which received the pure solvent as the inhibitory solution. Then the ED50 was calculated according to Reed and Muench from the inhibitory values for the various concentrations.

[2] = Compatibility on the skin under occlusion; type: in vivo; settings: cream containing 10% of compound A; over 24 hours under occlusion
[3] = Acute toxicity, LD50 in the mouse; settings: in vivo, ip, death within 14 days
Procedure: The acute toxicity was determined with mice. The LD50, the dose leading to the death of 50% of the animals within 14 days, was calculated.

HeLa-cell culture = assay: Inhibition of cell cultures (HeLa); type: cell-based; settings: Homo sapiens, 72 h, 37° C., 3 days, read-out: Minimal inhibitory concentration
Procedure: Measurement of the inhibition of cell cultures
HeLa-cell culture was treated with trypsin and adjusted to a cell number of 150,000 cells/ml of fresh medium. The substance was always dissolved in the same quantity of dimethyl sulfoxide and then further diluted with growth medium. 0.1 ml of the substance-dilutions were added to each well of microtiter plates and then 0.2 ml of cell suspension were added (4 wells per dilution). Several growth controls containing 0.1 ml of growth medium instead of 0.1 ml of substance dilution were put up. After careful mixing, the cultures were incubated at 37° C. for 3 days in a 5% carbon dioxide atmosphere. The reading was effected in comparison with these controls. The results were given as the percentage of the deficiency and degeneration compared to the growth control. […] The data are referred to μg of substance per ml of total medium.

humans = settings: cited from earlier work
[4] = 25° C., 5 minutes before substrate, read-out: G6PDH-inhibition ED50, Immediate Inhibition (converted)
[5] = 37° C., 60 minutes before substrate, read-out: G6PDH-inhibition ED50, Inhibition of Incubation (converted)

## CCc1c(O)ccc(C(=O)C(F)(F)F)c1O [C, 3-Ethyl-2,4-dihydroxy-trifluoroacetophenone]
[1]; [4]
  IC50: 160 µM
[1]; [5]
  IC50: 85.4 µM

## O=C(c1ccc(O)cc1O)C(F)(F)F [Compound A, 2,4-Dihydroxy-trifluoroacetophenone]
[1]; [4]
  IC50: > 243 µM
[1]; [5]
  IC50: 160 µM
[2]
  compatibility on the skin: tolerated without irritation
[3]
  LD50 at 336 h: 105 mg/kg

## CCc1cc(C(=O)C(F)(F)F)c(O)cc1O [Compound B, 5-Ethyl-2,4-dihydroxy-trifluoroacetophenone]
[1]; [4]
  IC50: 147 µM
[1]; [5]
  IC50: 128 µM
[3]
  LD50 at 336 h: 88 mg/kg

## COc1ccc(C(=O)C(F)(F)F)c(OC)c1 [D, 2,4-Dimethoxy-trifluoroacetophenone]
HeLa-cell culture
  minimal effective concentration: 25 µg/mL
[1]; [4]
  IC50: > 214 µM
[1]; [5]
  IC50: > 214 µM

## CCCCCCc1ccc(O)cc1O [hexylresorcinol]
humans
  allergies in humans: in some cases cause allergies in humans
